{
  "source": "paper PMC3185571",
  "about": "(Viruses, 2010)",
  "key": {"[1]": {"molecular_target": "neuraminidase of A/Thailand/1035/2008 (H1N1), H275Y and D151D/G (Influenza A virus, UniProt C7FPR4)", "format": "biochemical"}, "[2]": {"molecular_target": "neuraminidase of A/Texas/12/2007, A (H3N2) Seasonal, E119V (Influenza A virus, UniProt D1FVK3, I119V)", "assay": "biochemical"}, "[3]": {"molecular_target": "neuraminidase of B/Texas/38/2008, D197E (Influenza B virus, UniProt C7F996)", "assay": "biochemical"}, "[4]": {"molecular_target": "neuraminidase of A/Washington/01/2007, A (H3N2) Seasonal, WT (Influenza A virus, UniProt A7UPN3)", "assay": "biochemical"}, "[5]": {"molecular_target": "neuraminidase of B/Memphis/20/1996, B Seasonal, R152K (Influenza B virus, UniProt R4KWM8, R150K)", "format": "biochemical"}, "[6]": {"molecular_target": "neuraminidase of B/Memphis/20/1996, B Seasonal, WT (Influenza B virus, UniProt C7FPS7)", "format": "biochemical"}, "[7]": {"molecular_target": "neuraminidase of A/Washington/10/2008, A (H1N1) Seasonal, WT (Influenza A virus, UniProt G3LYQ1)", "format": "biochemical"}, "[8]": {"molecular_target": "neuraminidase of A/Texas/48/2009, H1N1 Pandemic, H275Y (Influenza A virus, UniProt C6KP13, H275Y)", "format": "biochemical, 2009 pandemic H1N1 influenza virus"}, "[9]": {"molecular_target": "neuraminidase of A/Ontario/RV0442/2009, A(H3N2), D151V and V50M (Influenza A virus, UniProt X2GPU4, D151V/V50M)", "format": "biochemical"}, "[10]": {"molecular_target": "neuraminidase of seasonal influenza A(H1N1) H275Y variant virus isolates (Influenza A virus, UniProt A8C8J7, H275Y)", "format": "biochemical"}, "[11]": {"molecular_target": "neuraminidase of A/Florida/21/2008, A (H1N1) Seasonal, H275Y (Influenza A virus, UniProt G3LYQ1, H275Y)", "format": "biochemical"}, "[12]": {"molecular_target": "neuraminidase of 2009 pandemic H1N1 H275Y variant virus isolates (Influenza A virus, UniProt C3W5S3, H275Y)", "format": "biochemical, 2009 pandemic H1N1 influenza virus"}, "[13]": {"molecular_target": "neuraminidase of A/California/07/2009, H1N1 Pandemic, WT (Influenza A virus (A/California/07/2009(H1N1)), UniProt C7FH46)", "format": "biochemical, 2009 pandemic H1N1 influenza virus"}},
  "note": "Like-named read-outs stand apart in the source and are kept apart here.",
  "data": [
    {"smiles": "CC(=O)N[C@H]1[C@H]([C@H](O)[C@H](O)CO)OC(C(=O)O)=C[C@@H]1N=C(N)N", "note": "[Zanamivir, zanamivir]", "values": [
      {"measurement": "IC50", "setting": "[1]", "result": 20.6, "unit": "nM"},
      {"measurement": "IC50", "setting": "[2]", "result": 0.51, "unit": "nM"},
      {"measurement": "IC50", "setting": "[3]", "result": 10.3, "unit": "nM"}
    ]},
    {"smiles": "CCC(CC)[C@H](NC(C)=O)[C@@H]1[C@H](O)[C@@H](C(=O)O)C[C@H]1N=C(N)N", "note": "[Peramivir, peramivir]", "values": [
      {"measurement": "Fold Difference (IC50 of mutant/IC50 of wildtype virus)", "setting": "[4]", "result": "0.12±0.02 (1)"},
      {"measurement": "Fold Difference (IC50 of mutant/IC50 of wildtype virus)", "setting": "[5]", "result": "52.80±3.51 (176)"},
      {"measurement": "IC50", "setting": "[5]; read-out: Mean IC50 ± SD", "result": 52.8, "unit": "nM"},
      {"measurement": "Fold Difference (IC50 of mutant/IC50 of wildtype virus)", "setting": "[6]", "result": "0.31±0.06 (1)"},
      {"measurement": "IC50", "setting": "[1]; read-out: IC50", "result": 295, "unit": "nM"},
      {"measurement": "Fold Difference (IC50 of mutant/IC50 of wildtype virus)", "setting": "[7]", "result": "0.09±0.02 (1)"},
      {"measurement": "Fold Difference (IC50 of mutant/IC50 of wildtype virus)", "setting": "[8]", "result": "10.06±0.01 (164)"},
      {"measurement": "IC50", "setting": "[8]; read-out: Mean IC50 ± SD", "result": 10.1, "unit": "nM"},
      {"measurement": "IC50", "setting": "[9]", "result": 7.48, "unit": "nM"},
      {"measurement": "fold, mean IC50 among H275Y variants over H275 wildtype viruses", "setting": "[10]", "result": "~300", "unit": "fold"},
      {"measurement": "IC50", "setting": "[10]; read-out: IC50 Mean (±SD)", "result": "30.6 ± 66.1", "unit": "nM"},
      {"measurement": "IC50", "setting": "[10]; read-out: IC50 Median", "result": 12.9, "unit": "nM"},
      {"measurement": "IC50", "setting": "[10]; read-out: IC50 Range", "result": "2.46 to 511", "unit": "nM"},
      {"measurement": "Fold Difference (IC50 of mutant/IC50 of wildtype virus)", "setting": "[11]", "result": "11.27±1.36 (134)"},
      {"measurement": "IC50", "setting": "[11]; read-out: Mean IC50 ± SD", "result": 11.3, "unit": "nM"},
      {"measurement": "Fold Difference (IC50 of mutant/IC50 of wildtype virus)", "setting": "[2]", "result": "0.14±0.02 (1)"},
      {"measurement": "IC50", "setting": "[2]; read-out: Mean IC50 ± SD", "result": 0.14, "unit": "nM"},
      {"measurement": "IC50", "setting": "[12]; read-out: IC50 Mean (±SD)", "result": "10.4 ± 1.37", "unit": "nM"},
      {"measurement": "IC50", "setting": "[12]; read-out: IC50 Median", "result": 10.3, "unit": "nM"},
      {"measurement": "IC50", "setting": "[12]; read-out: IC50 Range", "result": "8.1 to 12.9", "unit": "nM"},
      {"measurement": "Fold Difference (IC50 of mutant/IC50 of wildtype virus)", "setting": "[13]", "result": "0.06±0.02 (1)"}
    ]}
  ]
}
